The values that follow come from patent publication US12723063B2, “GIPR-agonist compounds” (Eli Lilly and Company, priority 2019, dated 2026).

Assay [1] deals with T1, human GIPR (Homo sapiens, UniProt P48546).
T1 construct: expressed in transfected cells; crude membranes
T1 sequence (P48546 22-466): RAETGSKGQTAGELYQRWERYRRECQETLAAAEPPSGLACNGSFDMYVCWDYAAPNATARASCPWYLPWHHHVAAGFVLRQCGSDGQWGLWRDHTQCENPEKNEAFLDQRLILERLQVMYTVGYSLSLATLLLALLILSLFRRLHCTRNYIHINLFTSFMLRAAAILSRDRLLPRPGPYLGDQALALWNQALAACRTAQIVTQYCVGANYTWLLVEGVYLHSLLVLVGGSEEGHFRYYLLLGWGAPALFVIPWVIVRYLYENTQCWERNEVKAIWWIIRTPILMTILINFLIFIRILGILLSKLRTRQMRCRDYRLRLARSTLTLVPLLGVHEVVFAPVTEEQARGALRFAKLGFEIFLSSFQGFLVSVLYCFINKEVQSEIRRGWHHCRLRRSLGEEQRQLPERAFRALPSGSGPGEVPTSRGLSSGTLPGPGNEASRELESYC
Kind of assay: [125I]-GIP binding, SPA with WGA beads, 0.1% bacitracin. To be noted: geometric mean, read-out: hGIPR Ki. As to the method: (§1) Stably transfected cell lines are prepared by subcloning receptor cDNA into a pcDNA3 expression plasmid and transfected into human embryonic kidney (HEK) 293 (hGcgR and hGLP-1R) or Chinese Hamster Ovary (CHO) (hGIPR) cells followed by selection with Geneticin (hGLP-1R and hGIPR) or hygromycin B (hGcgR).
(§2) Two methods are used for the preparation of crude cell membranes.
(§3) Method 1: Frozen cell pellets are lysed on ice in hypotonic buffer containing 50 mM Tris HCl, pH 7.5, and Roche Complete™ Protease Inhibitors with EDTA. The cell suspension is disrupted using a glass Potter-Elvehjem homogenizer fitted with a Teflon® pestle for 25 strokes. The homogenate is centrifuged at 4° C. at 1100× g for 10 minutes. The supernatant is collected and stored on ice while the pellets are resuspended in homogenization buffer and rehomogenized as described above. The homogenate is centrifuged at 1100× g for 10 minutes. The second supernatant is combined with the first supernatant and centrifuged at 35000× g for 1 hour at 4° C. The resulting membrane pellet is resuspended in homogenization buffer containing protease inhibitors at approximately 1 to 3 mg/mL, quick frozen in liquid nitrogen and stored as aliquots in a −80° C. freezer until use.
(§4) Method 2: Frozen cell pellets are lysed on ice in hypotonic buffer containing 50 mM Tris HCl, pH 7.5, 1 mM MgCl2, Roche Complete™ EDTA-free Protease Inhibitors and 25 units/mL DNAse I (Invitrogen). The cell suspension is disrupted using a glass Potter-Elvehjem homogenizer fitted with a Teflon® pestle for 20 to 25 strokes. The homogenate is centrifuged at 4° C. at 1800× g for 15 minutes. The supernatant is collected and stored on ice while the pellets are resuspended in homogenization buffer (without DNAse I) and rehomogenized as described above. The homogenate is centrifuged at 1800× g for 15 minutes. The second supernatant is combined with the first supernatant and centrifuged an additional time at 1800× g for 15 minutes. The overall supernatant is then centrifuged at 25000× g for 30 minutes at 4° C. The resulting membrane pellet is resuspended in homogenization buffer (without DNAse I) containing protease inhibitors at approximately 1 to 3 mg/mL and stored as aliquots in a −80° C. freezer until use.
The binding buffer contains 25 mM HEPES, pH 7.4, 2.5 mM CaCl2), 1 mM MgCl2, 0.1% (w/v) bacitracin, 0.003% (w/v) TWEEN®-20, and Roche Complete™ Protease Inhibitors without EDTA. […] Plates are sealed and mixed on a plate shaker (setting 6) for 1 minute and read with a PerkinElmer Trilux MicroBeta® scintillation counter after 2.5 to 12 hours of incubation/settling time at room temperature.
(§5) Data are analyzed using four-parameter (curve maximum, curve minimum, IC50, Hill slope) nonlinear regression routines (Genedata Screener, version 12.0.4, Genedata AG, Basal, Switzerland). […] Values for Ki are reported as the geometric mean, with error expressed as the standard error of the mean (SEM) and n is equal to the number of independent replicates (determined in assays performed on different days). […] SEM is only calculated when […] or greater. Means are expressed as geometric means with the standard error of the mean (SEM) and the number of replicates (n) indicated in parentheses.

Assay [2] addresses T2, human GcgR (Homo sapiens, UniProt P47871).
T2 construct: expressed in transfected cells; crude membranes
The assay is described as follows: [125I]-Glucagon binding, SPA with WGA beads, 0.1% bacitracin. Particulars: geometric mean, read-out: hGcgR Ki. As to the method:
as §1, §2, §3, §4
The human Geg receptor binding assays are performed using a Scintillation Proximity Assay (SPA) format with wheat germ agglutinin (WGA) beads (Perkin Elmer). The binding buffer contains 25 mM 4-(2-hydroxyethyl)-1-piperazineethanesulfonic acid (HEPES), pH 7.4, 2.5 mM CaCl2), 1 mM MgCl2, 0.1% (w/v) bacitracin (Research Products), 0.003% (w/v) Polyoxyethylenesorbitan monolaurate (TWEEN®-20), and Roche Complete™ Protease Inhibitors without EDTA. Peptides and Gcg are thawed and 3-fold serially diluted in 100% DMSO (10 point concentration response curves). Next, 5 μL serially diluted compound or DMSO is transferred into Corning® 3632 clear bottom assay plates containing 45 μL assay binding buffer or unlabeled Gcg control (non-specific binding or NSB, at 1 μM final). […] Plates are sealed and mixed on a plate shaker (setting 6) for 1 minute and read with a PerkinElmer Trilux MicroBeta® scintillation counter after 12 hours of incubation/settling time at room temperature.
as §5

T2 sequence (P47871 26-477): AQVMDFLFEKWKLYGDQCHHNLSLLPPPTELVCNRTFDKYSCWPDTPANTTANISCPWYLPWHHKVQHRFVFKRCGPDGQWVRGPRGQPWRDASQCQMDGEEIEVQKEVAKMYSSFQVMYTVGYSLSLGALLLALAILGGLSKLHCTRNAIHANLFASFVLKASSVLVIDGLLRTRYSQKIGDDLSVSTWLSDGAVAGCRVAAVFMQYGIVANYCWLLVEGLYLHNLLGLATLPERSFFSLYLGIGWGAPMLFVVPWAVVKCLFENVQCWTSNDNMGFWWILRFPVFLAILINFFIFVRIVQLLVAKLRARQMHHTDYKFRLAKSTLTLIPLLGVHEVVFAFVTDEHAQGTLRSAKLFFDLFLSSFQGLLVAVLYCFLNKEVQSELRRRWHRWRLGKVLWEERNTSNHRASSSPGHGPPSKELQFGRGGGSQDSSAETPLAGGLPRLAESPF

Consider `CC[C@H](C)[C@H](NC(=O)[C@H](CO)NC(=O)[C@H](Cc1ccc(O)cc1)NC(=O)[C@H](CC(=O)O)NC(=O)[C@H](CO)NC(=O)[C@@H](NC(=O)[C@H](Cc1ccccc1)NC(=O)[C@@H](NC(=O)CNC(=O)[C@H](CCC(=O)O)NC(=O)[C@@H](C)NC(=O)[C@@H](N)Cc1ccc(O)cc1)[C@@H](C)O)[C@@H](C)CC)C(=O)N[C@@H](CC(C)C)C(=O)N[C@@H](CC(C)C)C(=O)N[C@@H](CC(=O)O)C(=O)N[C@@H](CCCCN)C(=O)N[C@@H](CCCCNC(=O)COCCOCCNC(=O)COCCOCCNC(=O)CC[C@H](NC(=O)CCCCCCCCCCCCCCCCCCC(=O)O)C(=O)O)C(=O)N[C@@H](C)C(=O)N[C@@H](CCC(N)=O)C(=O)NC(C)(C)C(=O)N[C@@H](CC(=O)O)C(=O)N[C@@H](Cc1ccccc1)C(=O)N[C@H](C(=O)N[C@@H](CC(N)=O)C(=O)N[C@@H](Cc1c[nH]c2ccccc12)C(=O)N[C@@H](CC(C)C)C(=O)N[C@@H](CC(C)C)C(=O)N[C@@H](C)C(=O)N[C@@H](CCC(N)=O)C(=O)NCC(=O)N1CCC[C@H]1C(=O)N[C@@H](CO)C(=O)N[C@@H](CO)C(=O)NCC(=O)N[C@@H](C)C(=O)N1CCC[C@H]1C(=O)N1CCC[C@H]1C(=O)N1CCC[C@H]1C(=O)N[C@@H](CO)C(N)=O)C(C)C` [Example 1], for which the Ki (usually the equilibrium dissociation constant of an inhibitor or competing ligand from its target) in assay [1] was found to be 0.0667 nM; in assay [2] it was 228 nM.

Consider `CC[C@H](C)[C@H](NC(=O)[C@H](CO)NC(=O)[C@H](Cc1ccc(O)cc1)NC(=O)[C@H](CC(=O)O)NC(=O)[C@H](CO)NC(=O)[C@@H](NC(=O)[C@H](Cc1ccccc1)NC(=O)[C@@H](NC(=O)CNC(=O)[C@H](CCC(=O)O)NC(=O)[C@@H](C)NC(=O)[C@@H](N)Cc1ccc(O)cc1)[C@@H](C)O)[C@@H](C)CC)C(=O)N[C@@H](CC(C)C)C(=O)N[C@@H](CC(C)C)C(=O)N[C@@H](CC(=O)O)C(=O)N[C@@H](CCCCN)C(=O)N[C@@H](CCCCNC(=O)COCCOCCNC(=O)COCCOCCNC(=O)CC[C@H](NC(=O)CCCCCCCCCCCCCCCCC(=O)O)C(=O)O)C(=O)N[C@@H](C)C(=O)N[C@@H](CCC(N)=O)C(=O)NC(C)(C)C(=O)N[C@@H](CC(=O)O)C(=O)N[C@@H](Cc1ccccc1)C(=O)N[C@H](C(=O)N[C@@H](CC(N)=O)C(=O)N[C@@H](Cc1c[nH]c2ccccc12)C(=O)N[C@@H](CC(C)C)C(=O)N[C@@H](CC(C)C)C(=O)N[C@@H](C)C(=O)N[C@@H](CCC(N)=O)C(=O)NCC(=O)N1CCC[C@H]1C(=O)N[C@@H](CO)C(=O)N[C@@H](CO)C(=O)NCC(=O)N[C@@H](C)C(=O)N1CCC[C@H]1C(=O)N1CCC[C@H]1C(=O)N1CCC[C@H]1C(=O)N[C@@H](CO)C(N)=O)C(C)C` [Example 2], for which the Ki was 0.0373 nM in assay [1] and 379 nM in assay [2].

As for `CC[C@H](C)[C@H](NC(=O)[C@H](Cc1ccccc1)NC(=O)[C@@H](NC(=O)CNC(=O)[C@H](CCC(=O)O)NC(=O)C(C)(C)NC(=O)[C@@H](N)Cc1ccc(O)cc1)[C@@H](C)O)C(=O)N[C@@H](CO)C(=O)N[C@@H](CC(=O)O)C(=O)N[C@@H](Cc1ccc(O)cc1)C(=O)N[C@@H](CO)C(=O)N[C@H](C(=O)N[C@@](C)(CC(C)C)C(=O)N[C@@H](CC(C)C)C(=O)N[C@@H](CC(=O)O)C(=O)N[C@@H](CCCCN)C(=O)N[C@@H](CCCCNC(=O)COCCOCCNC(=O)COCCOCCNC(=O)CC[C@H](NC(=O)CCCCCCCCCCCCCCCCCCC(=O)O)C(=O)O)C(=O)N[C@@H](Cc1c[nH]cn1)C(=O)N[C@@H](CCC(N)=O)C(=O)NC(C)(C)C(=O)N[C@@H](CC(=O)O)C(=O)N[C@@H](Cc1ccccc1)C(=O)N[C@H](C(=O)N[C@@H](CCC(=O)O)C(=O)N[C@@H](Cc1ccncc1)C(=O)N[C@@H](CC(C)C)C(=O)N[C@@H](CC(C)C)C(=O)N[C@@H](CCC(=O)O)C(=O)N[C@@H](C)C(=O)NCC(=O)N1CCC[C@H]1C(=O)N[C@@H](CO)C(=O)N[C@@H](CO)C(=O)NCC(=O)N[C@@H](C)C(=O)N1CCC[C@H]1C(=O)N1CCC[C@H]1C(=O)N1CCC[C@H]1C(=O)N[C@@H](CO)C(N)=O)C(C)C)[C@@H](C)CC` [Example 3], the values for the Ki in assay [1] and in assay [2] were 0.0525 nM and 338 nM, respectively.

For `CC[C@H](C)[C@H](NC(=O)[C@H](Cc1ccccc1)NC(=O)[C@@H](NC(=O)CNC(=O)[C@H](CCC(=O)O)NC(=O)C(C)(C)NC(=O)[C@@H](N)Cc1ccc(O)cc1)[C@@H](C)O)C(=O)N[C@@H](CO)C(=O)N[C@@H](CC(=O)O)C(=O)N[C@@H](Cc1ccc(O)cc1)C(=O)N[C@@H](CO)C(=O)N[C@H](C(=O)N[C@@](C)(CC(C)C)C(=O)N[C@@H](CC(C)C)C(=O)N[C@@H](CC(=O)O)C(=O)N[C@@H](CCCN)C(=O)N[C@@H](CCCCNC(=O)COCCOCCNC(=O)COCCOCCNC(=O)CC[C@H](NC(=O)CCCCCCCCCCCCCCCCCCC(=O)O)C(=O)O)C(=O)N[C@@H](Cc1c[nH]cn1)C(=O)N[C@@H](CCC(N)=O)C(=O)NC(C)(C)C(=O)N[C@@H](CC(=O)O)C(=O)N[C@@H](Cc1ccccc1)C(=O)N[C@H](C(=O)N[C@@H](CCC(=O)O)C(=O)N[C@@H](Cc1ccncc1)C(=O)N[C@@H](CC(C)C)C(=O)N[C@@H](CC(C)C)C(=O)N[C@@H](CCC(=O)O)C(=O)N[C@@H](C)C(=O)NCC(=O)N1CCC[C@H]1C(=O)N[C@@H](CO)C(=O)N[C@@H](CO)C(=O)NCC(=O)N[C@@H](C)C(=O)N1CCC[C@H]1C(=O)N1CCC[C@H]1C(=O)N1CCC[C@H]1C(=O)N[C@@H](CO)C(N)=O)C(C)C)[C@@H](C)CC` [Example 4], the values for the Ki in assay [1] and in assay [2] were 0.062 nM and 431 nM, respectively.

Consider `CC[C@H](C)[C@H](NC(=O)[C@H](CCCCN)NC(=O)[C@H](CC(=O)O)NC(=O)[C@H](CC(C)C)NC(=O)[C@](C)(CC(C)C)NC(=O)[C@@H](NC(=O)[C@H](CO)NC(=O)[C@H](Cc1ccc(O)cc1)NC(=O)[C@H](CC(=O)O)NC(=O)[C@H](CO)NC(=O)[C@@H](NC(=O)[C@H](Cc1ccccc1)NC(=O)[C@@H](NC(=O)CNC(=O)[C@H](CCC(=O)O)NC(=O)C(C)(C)NC(=O)[C@@H](N)Cc1ccc(O)cc1)[C@@H](C)O)[C@@H](C)CC)[C@@H](C)CC)C(=O)N[C@@H](Cc1c[nH]cn1)C(=O)N[C@@H](CCC(N)=O)C(=O)NC(C)(C)C(=O)N[C@@H](CC(=O)O)C(=O)N[C@@H](Cc1ccccc1)C(=O)N[C@H](C(=O)N[C@@H](CCC(=O)O)C(=O)N[C@@H](Cc1ccc(O)cc1)C(=O)N[C@@H](CCCCNC(=O)COCCOCCNC(=O)COCCOCCNC(=O)CC[C@H](NC(=O)CCCCCCCCCCCCCCCCCCC(=O)O)C(=O)O)C(=O)N[C@@H](CC(C)C)C(=O)N[C@@H](CCC(=O)O)C(=O)NCC(=O)NCC(=O)N1CCC[C@H]1C(=O)N[C@@H](CO)C(=O)N[C@@H](CO)C(=O)NCC(=O)N[C@@H](C)C(=O)N1CCC[C@H]1C(=O)N1CCC[C@H]1C(=O)N1CCC[C@H]1C(=O)N[C@@H](CO)C(N)=O)C(C)C` [Example 5], for which the values for the Ki in assay [1] and in assay [2] were 0.0771 nM and 619 nM, respectively.
